Test system: TCRs from the BAL of COVID-19 patients
Type: cell-based, human

## LLLLDRLNQLESKMSGKGQQQQ (SARS-CoV-2 epitope) [N221-242]
  recognition of the peptide, effect of the mutation (NFAT activation): unaffected
